The source made the active and inactive calls.
Columns and labels:
[1] = target: Mitogen-activated protein kinase 10 (Homo sapiens, UniProt P53779); experiment: Dose response biochemical screening assay for inhibitors of c-Jun N-Terminal Kinase 3 (JNK3). [Related pubchem assays: 746 ]
Protein Tat = Protein Tat (Human immunodeficiency virus type 1 group M subtype B (isolate HXB2)(HIV-1), UniProt P04608); type: functional;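 further: tat binding to TAR RNA read out by fluorescence polarization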
[2] = THP-1 cell cytotoxicity, dose response, cytotoxicity control for Vif-APOBEC3G degradation inhibitor project, THP-1 cells (AID 1117359); type: functional; details: Human immunodeficiency virus 1, THP-1
[3] = target: NAD-dependent protein deacylase sirtuin-5, mitochondrial (Homo sapiens, UniProt Q9NXA8); experiment: SIRT5 desuccinylase inhibitors, dose response, biochemical, fluorescence imaging, cherry-pick, set 5 (AID 720591);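 further: desuccinylation of succinyl peptide AMC substrate read as fluorescence after trypsin release; potency of inhibitors that lower fluorescence and may act on trypsin instead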
[4] = target: T1, Tyrosine-protein phosphatase non-receptor type 7 (Homo sapiens, UniProt P35236); experiment: inhibitors of human HePTP phosphatase, […], biochemical, absorbance, leukemia target (AID 521); type: functional
T1 sequence (P35236 whole entry): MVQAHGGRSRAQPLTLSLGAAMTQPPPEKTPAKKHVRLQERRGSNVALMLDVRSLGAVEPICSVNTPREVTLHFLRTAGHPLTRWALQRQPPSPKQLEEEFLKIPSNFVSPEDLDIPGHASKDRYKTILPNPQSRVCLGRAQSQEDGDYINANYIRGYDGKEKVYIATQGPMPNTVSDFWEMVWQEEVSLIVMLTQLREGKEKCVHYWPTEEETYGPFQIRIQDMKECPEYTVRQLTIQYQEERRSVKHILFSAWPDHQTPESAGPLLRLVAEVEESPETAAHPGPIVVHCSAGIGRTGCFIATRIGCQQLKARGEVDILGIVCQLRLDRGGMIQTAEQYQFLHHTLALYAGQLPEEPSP

[5] = target: T2, Corticotropin-releasing factor receptor 2/Corticotropin-releasing factor-binding protein (Homo sapiens, UniProt P24387+Q13324); experiment: activators of CRF receptor 2 with binding protein – uHTS hits, confirmation (AID 602473); type: functional; details: read-out: EC50_Mean
T2 sequence (Q13324 whole entry): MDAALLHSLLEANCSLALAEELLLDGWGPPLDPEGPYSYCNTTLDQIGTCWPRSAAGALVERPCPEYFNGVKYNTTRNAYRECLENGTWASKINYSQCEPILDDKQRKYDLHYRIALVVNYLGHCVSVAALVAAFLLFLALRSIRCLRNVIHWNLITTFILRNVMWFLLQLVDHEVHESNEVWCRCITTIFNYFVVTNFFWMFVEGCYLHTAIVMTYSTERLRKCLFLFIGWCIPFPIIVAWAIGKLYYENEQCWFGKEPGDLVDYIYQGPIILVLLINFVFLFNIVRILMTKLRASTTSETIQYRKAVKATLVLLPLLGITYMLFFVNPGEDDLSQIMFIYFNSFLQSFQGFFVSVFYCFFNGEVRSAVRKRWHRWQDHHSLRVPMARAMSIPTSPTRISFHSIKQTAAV
T2 sequence (P24387 whole entry): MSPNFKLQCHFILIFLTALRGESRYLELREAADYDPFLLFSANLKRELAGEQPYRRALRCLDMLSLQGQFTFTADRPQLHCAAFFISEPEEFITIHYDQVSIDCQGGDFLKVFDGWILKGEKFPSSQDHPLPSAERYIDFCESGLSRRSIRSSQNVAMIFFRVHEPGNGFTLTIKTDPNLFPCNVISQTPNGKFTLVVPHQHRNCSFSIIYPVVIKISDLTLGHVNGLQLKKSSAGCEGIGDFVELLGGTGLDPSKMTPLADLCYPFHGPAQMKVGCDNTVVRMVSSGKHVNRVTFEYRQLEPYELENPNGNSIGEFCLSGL

[6] = NIH-3T3 fibroblast cytotoxicity, dose response, cytotoxicity control, cell-based, fluorescence, Alamar Blue, secondary assay (AID 2327); type: functional;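 further: NIH-3T3 mouse fibroblasts cultured with fluconazole at 8 µg/mL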
[7] = C. albicans growth with fluconazole, confirmation, fluorescence, retest (AID 2467); type: functional, cell-based
[8] = cytotoxicity in HPDE-C7 cells, cell-based, fluorescence, HTS (AID 430); type: functional; details: Homo sapiens
[9] = cytotoxicity in KRAS-transformed pancreatic duct cells, primary screen, cell-based, fluorescence, HTS (AID 431); type: functional; details: Homo sapiens;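 further: cell line used: HPDE-C7K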
Estrogen receptor beta [10] = target: T3, Estrogen receptor beta (Homo sapiens, UniProt Q92731);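 further: recombinant ER-beta bound to coactivator SRC1 peptide in presence of estradiol agonist; inhibitors block coactivator peptide binding and lower the FRET signal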
Estrogen receptor beta [11] = target: T3, Estrogen receptor beta; experiment: ERβ–SRC-3 coactivator interaction inhibitors, confirmation, orthogonal assay, biochemical, ELISA, streptavidin-HRP readout (AID 1060)
Ephrin type-A receptor 4 = Ephrin type-A receptor 4 (Mus musculus, UniProt Q03137); experiment: inhibitors of EphA4 binding to KYL peptide, primary screen, biochemical, colorimetric, mouse EphA4 (AID 689); type: functional
[12] = target: Induced myeloid leukemia cell differentiation protein Mcl-1 (Homo sapiens, UniProt Q07820); type: functional
[13] = target: T4, Heat shock factor protein 1 (Mus musculus, UniProt P38532); experiment: HSF1 potentiators in luciferase reporter cells, confirmation, cell-based, NIH3T3, luminescence, dose retest (AID 435004); type: functional;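 further: stress induced by proteasome inhibitor MG132 added 30 min after compound; luciferase reporter driven by HSF1 response element in NIH3T3 cells; actives raise luminescence as potentiators of the MG132 stress response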
T4 sequence (P38532 whole entry): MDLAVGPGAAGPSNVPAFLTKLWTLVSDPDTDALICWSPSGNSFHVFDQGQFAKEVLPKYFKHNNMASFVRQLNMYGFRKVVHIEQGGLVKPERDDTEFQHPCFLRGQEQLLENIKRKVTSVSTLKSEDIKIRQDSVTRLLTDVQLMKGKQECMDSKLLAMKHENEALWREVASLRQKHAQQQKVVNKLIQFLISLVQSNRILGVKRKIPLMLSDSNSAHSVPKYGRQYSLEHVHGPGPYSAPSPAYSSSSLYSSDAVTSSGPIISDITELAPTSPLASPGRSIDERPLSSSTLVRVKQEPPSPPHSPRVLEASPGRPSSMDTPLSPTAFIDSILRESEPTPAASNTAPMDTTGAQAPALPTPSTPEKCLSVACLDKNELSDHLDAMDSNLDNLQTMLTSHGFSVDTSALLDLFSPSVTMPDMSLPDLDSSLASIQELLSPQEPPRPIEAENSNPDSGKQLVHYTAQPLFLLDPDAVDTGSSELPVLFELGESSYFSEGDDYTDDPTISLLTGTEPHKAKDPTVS

[14] = P. falciparum late gametocyte killing, dose response, luminescence (AID 1117278); type: functional, cell-based;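 further: gametocytes exposed to compound for 24 hours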
[15] = Jurkat T cell cytotoxicity, dose response, cytotoxicity control for P. falciparum gametocyte viability project, luminescence (AID 1117277); type: functional, cell-based;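 further: potency reflects loss of cellular ATP meaning fewer viable cells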
[16] = Dose-response inhibition of insulin secretion in a rat insulinoma line at 5 mM glucose (AID 1117331); type: functional, cell-based; details: INS-1E
BJ [17] = experiment: cytotoxicity toward BJ-TERT fibroblasts, dose response, cell-based, RAS-independent, luminescence (AID 1933); type: functional; details: Homo sapiens
BJ [18] = experiment: cells; type: functional, cell-based; details: Homo sapiens
HT-1080 = experiment: cytotoxicity in HT1080 fibrosarcoma cells, cell-based, fluorescence readout (AID 620); type: functional; details: Homo sapiens
BJ [19] = experiment: cytotoxicity toward BJ-TERT-LT-ST fibroblasts, dose response, cell-based, RAS-independent, luminescence (AID 1935); type: functional; details: Homo sapiens;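 further: BJ fibroblasts immortalized with TERT plus LT and ST oncogenes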
[20] = cytotoxicity toward DRD oncogenic fibroblasts, dose response, cell-based, non-viral oncogenic, luminescence (AID 1934); type: functional; details: Homo sapiens
HEK293 = experiment: inhibitors of LMP1-driven NF-kB reporter, dose response, cell-based, HEK293, luciferase, cherry-pick (AID 588343); type: functional; details: Homo sapiens
[21] = A549 cell cytotoxicity, dose response, cytotoxicity control, plate reader, cherry-pick, antagonist series (AID 743412); type: functional, cell-based
[22] = HepG2 cell cytotoxicity, dose response, cytotoxicity control, plate reader, cherry-pick, antagonist series (AID 743416); type: functional, cell-based
[23] = LGR2 antagonists, dose response, cell-based, HEK293, CRE-luciferase reporter, cherry pick, set 2 (AID 743343); type: functional;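 further: transfected cells were stimulated with diluted bursicon conditioned medium after compound addition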
[24] = MC4R antagonists, dose response, counter-screen for LGR2 antagonist project, cell-based, plate reader, cherry pick (AID 743444); type: functional;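 further: transfected HEK 293 cells stimulated with alpha-MSH peptide; potency of inhibitors of the alpha-MSH evoked signal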
[25] = target: T5, Oxysterols receptor LXR-beta (Homo sapiens, UniProt P55055); type: functional, cell-based;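 further: Cell-based luminescence dose-response assay of agonist activity at LXR, run as a confirmatory counterscreen to a daf-12 agonist screen; HEK293 cells with Gal4-LXR fusion and GAL4-driven luciferase reporter; agonist potency from rising luciferase signal of a Gal4-LXR reporter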
T5 sequence (P55055 whole entry): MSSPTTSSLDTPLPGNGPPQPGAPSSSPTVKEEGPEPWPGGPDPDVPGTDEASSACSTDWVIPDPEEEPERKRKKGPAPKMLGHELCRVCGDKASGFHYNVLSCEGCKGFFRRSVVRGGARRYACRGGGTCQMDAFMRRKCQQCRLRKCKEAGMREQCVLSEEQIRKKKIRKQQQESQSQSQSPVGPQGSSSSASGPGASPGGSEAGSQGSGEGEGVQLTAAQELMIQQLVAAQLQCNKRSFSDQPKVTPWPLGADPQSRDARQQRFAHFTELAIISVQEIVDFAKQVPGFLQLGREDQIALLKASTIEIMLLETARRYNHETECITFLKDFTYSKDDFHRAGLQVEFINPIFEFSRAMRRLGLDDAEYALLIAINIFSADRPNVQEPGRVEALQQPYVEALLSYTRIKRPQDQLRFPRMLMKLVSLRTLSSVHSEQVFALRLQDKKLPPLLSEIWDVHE

[26] = HEK293 cell cytotoxicity, dose response, cytotoxicity control, plate reader, cherry-picked samples (AID 743446); type: functional, cell-based
[27] = P. falciparum Dd2 growth inhibitors, dose response, SYBR Green, dry powder samples, set 9 (AID 1159568); type: functional, cell-based
[28] = target: Sphingosine 1-phosphate receptor 2 (Homo sapiens, UniProt O95136); experiment: Dose Response Cell Based Assay for Antagonists of the S1P2 Receptor. [Related pubchem assays: 856, 736 ]; type: functional
Cytochrome P450 2C19 = Cytochrome P450 2C19 (Homo sapiens, UniProt P33261); experiment: Cytochrome panel assay with activity outcomes. Panel member name: p450-cyp2c19 Compounds with AC50 equal or less than 10 uM are considered active; type: functional; details: read-out: AC50
Cytochrome P450 2C9 = Cytochrome P450 2C9 (Homo sapiens, UniProt P11712)
[29] = inhibitors of PGC1a acetylation in cells, dose response, cell-based, cherry-picked samples (AID 720514); type: functional;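 further: potency may reflect raised or lowered acetylation signal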

NAD-dependent protein deacylase sirtuin-5, mitochondrial, sequence (Q9NXA8 whole entry): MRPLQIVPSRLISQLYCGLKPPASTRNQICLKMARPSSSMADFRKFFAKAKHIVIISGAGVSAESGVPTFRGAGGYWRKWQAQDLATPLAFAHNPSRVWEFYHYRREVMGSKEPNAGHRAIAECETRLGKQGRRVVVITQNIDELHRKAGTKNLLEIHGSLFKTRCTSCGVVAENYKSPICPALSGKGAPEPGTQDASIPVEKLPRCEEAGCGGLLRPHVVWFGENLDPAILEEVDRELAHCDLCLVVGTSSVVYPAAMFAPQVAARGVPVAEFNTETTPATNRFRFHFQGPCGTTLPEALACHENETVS
Mitogen-activated protein kinase 10, sequence (P53779 whole entry): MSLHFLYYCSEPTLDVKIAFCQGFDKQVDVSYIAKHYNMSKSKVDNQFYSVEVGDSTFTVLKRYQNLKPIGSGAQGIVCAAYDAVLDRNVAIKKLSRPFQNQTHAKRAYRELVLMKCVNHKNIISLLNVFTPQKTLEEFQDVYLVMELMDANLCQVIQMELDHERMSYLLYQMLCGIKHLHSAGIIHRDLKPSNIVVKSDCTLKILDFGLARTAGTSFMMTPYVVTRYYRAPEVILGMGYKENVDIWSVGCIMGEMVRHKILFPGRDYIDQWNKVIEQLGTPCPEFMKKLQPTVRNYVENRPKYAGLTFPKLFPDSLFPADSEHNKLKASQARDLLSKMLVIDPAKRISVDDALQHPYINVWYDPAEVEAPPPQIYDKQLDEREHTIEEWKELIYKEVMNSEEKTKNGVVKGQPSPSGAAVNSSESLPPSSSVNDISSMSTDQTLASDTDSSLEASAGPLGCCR
T3 sequence (Q92731 whole entry): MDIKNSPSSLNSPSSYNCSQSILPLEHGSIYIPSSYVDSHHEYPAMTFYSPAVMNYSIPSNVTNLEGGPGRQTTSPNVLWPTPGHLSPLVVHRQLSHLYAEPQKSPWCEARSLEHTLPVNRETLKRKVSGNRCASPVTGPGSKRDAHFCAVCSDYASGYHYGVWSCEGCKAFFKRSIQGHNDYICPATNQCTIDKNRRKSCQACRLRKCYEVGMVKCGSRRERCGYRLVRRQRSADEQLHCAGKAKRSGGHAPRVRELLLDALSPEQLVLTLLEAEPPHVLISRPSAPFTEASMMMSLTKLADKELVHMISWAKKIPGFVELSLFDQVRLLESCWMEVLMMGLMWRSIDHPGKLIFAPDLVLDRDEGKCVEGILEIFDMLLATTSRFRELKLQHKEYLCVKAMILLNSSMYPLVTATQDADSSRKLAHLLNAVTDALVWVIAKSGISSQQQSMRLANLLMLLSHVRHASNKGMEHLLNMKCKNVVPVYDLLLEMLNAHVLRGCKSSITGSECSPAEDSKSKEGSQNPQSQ
Cytochrome P450 2C19, sequence (P33261 whole entry): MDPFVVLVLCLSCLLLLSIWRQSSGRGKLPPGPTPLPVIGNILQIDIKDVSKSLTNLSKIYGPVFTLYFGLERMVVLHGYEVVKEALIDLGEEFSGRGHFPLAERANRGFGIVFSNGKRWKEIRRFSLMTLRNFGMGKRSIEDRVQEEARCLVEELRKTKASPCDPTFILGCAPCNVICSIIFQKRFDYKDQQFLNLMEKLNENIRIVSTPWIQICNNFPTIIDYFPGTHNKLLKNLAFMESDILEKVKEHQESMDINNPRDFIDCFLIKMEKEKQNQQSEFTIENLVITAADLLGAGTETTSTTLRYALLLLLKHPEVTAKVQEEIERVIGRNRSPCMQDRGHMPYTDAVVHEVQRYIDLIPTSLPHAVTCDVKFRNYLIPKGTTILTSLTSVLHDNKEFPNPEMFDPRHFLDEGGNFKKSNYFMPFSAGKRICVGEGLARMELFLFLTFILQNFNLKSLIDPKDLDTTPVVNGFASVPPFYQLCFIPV
Cytochrome P450 2C9, sequence (P11712 whole entry): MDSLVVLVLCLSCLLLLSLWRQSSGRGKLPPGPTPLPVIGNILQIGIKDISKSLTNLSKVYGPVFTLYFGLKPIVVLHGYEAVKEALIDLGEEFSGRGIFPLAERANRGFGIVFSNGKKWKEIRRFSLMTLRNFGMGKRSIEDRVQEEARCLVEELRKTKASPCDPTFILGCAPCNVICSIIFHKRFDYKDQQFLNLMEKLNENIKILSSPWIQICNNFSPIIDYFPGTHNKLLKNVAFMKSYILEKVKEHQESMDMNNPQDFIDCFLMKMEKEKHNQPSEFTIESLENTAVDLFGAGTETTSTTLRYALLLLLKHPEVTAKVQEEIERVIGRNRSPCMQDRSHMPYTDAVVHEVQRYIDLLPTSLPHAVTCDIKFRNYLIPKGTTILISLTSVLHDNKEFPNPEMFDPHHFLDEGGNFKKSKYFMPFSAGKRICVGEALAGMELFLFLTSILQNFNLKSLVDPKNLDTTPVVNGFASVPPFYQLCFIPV
Sphingosine 1-phosphate receptor 2, sequence (O95136 whole entry): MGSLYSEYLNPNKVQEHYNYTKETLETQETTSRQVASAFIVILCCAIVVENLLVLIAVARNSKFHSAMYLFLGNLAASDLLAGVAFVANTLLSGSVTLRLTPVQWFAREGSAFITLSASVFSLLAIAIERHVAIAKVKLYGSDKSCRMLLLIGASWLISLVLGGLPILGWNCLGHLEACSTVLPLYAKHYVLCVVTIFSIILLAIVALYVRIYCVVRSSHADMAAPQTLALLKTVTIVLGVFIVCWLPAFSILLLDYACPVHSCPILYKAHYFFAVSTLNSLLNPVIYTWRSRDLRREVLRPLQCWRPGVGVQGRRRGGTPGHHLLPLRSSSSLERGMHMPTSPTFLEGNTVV
Protein Tat, sequence (P04608 whole entry): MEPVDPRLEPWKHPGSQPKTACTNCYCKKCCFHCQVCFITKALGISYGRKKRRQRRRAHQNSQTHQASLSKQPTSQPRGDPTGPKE
Ephrin type-A receptor 4, sequence (Q03137 whole entry): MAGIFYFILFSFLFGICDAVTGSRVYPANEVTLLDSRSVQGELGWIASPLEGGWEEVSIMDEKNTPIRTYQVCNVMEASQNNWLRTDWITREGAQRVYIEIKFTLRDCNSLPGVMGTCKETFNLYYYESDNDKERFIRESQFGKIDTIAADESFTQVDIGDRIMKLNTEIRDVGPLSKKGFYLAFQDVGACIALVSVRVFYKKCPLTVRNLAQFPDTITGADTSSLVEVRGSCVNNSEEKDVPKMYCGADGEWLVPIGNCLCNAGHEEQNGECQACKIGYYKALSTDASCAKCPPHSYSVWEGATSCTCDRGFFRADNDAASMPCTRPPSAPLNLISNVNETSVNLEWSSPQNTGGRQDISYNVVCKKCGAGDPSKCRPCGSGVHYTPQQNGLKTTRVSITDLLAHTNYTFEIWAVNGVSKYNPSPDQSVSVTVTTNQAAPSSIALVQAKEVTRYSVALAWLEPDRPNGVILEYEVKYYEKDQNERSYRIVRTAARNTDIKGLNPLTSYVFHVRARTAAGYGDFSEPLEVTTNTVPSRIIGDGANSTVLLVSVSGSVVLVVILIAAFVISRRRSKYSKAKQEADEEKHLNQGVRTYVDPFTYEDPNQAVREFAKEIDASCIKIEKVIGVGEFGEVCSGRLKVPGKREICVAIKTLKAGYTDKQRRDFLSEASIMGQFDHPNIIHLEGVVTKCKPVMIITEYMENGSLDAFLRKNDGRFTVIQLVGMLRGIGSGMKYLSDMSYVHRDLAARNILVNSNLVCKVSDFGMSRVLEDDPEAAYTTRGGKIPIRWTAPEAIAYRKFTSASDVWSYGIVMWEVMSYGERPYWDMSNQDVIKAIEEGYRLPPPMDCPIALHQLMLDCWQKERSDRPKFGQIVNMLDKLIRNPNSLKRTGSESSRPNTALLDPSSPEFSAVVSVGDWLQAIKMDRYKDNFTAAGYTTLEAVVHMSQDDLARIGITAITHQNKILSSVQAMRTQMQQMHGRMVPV
Induced myeloid leukemia cell differentiation protein Mcl-1, sequence (Q07820 whole entry): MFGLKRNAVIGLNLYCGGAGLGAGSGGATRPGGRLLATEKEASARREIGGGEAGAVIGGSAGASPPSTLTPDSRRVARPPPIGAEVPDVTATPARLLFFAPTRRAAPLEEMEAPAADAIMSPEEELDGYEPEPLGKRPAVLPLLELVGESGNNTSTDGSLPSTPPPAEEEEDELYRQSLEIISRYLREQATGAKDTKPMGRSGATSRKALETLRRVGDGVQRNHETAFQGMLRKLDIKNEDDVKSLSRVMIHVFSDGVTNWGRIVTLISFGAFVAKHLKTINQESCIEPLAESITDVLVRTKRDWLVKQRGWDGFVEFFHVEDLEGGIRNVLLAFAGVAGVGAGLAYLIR

O=C1c2ccccc2C(=O)C1c1ccncc1
IC50 [1]: 18 µM (not active)

COc1ccc(S(=O)(=O)c2c(N)n(Cc3ccco3)c3nc4ccccc4nc23)cc1
IC50 (Protein Tat): 3.46 µM (inconclusive) | CC50 [2]: > 40 µM (active)

CS(=O)(=O)N(CC(=O)N1CCCCC1)c1cccc(F)c1
AC50 [3]: 29.7 µM (active)

CN1CCc2c(sc3c2C(=O)NC(c2cccs2)N3)C1 (stereo unspecified)
IC50 [4]: > 100 µM (not active) | EC50 [5]: > 53 µM (inactive)

COc1cc(C(Nc2ccccn2)c2ccc3ccc(C)nc3c2O)cc(OC)c1O (stereo unspecified)
EC50 [6]: 5.42 µM (inconclusive) | EC50 [7]: > 38 µM (not active) | EC50 [8]: 4.68 µM (active) | EC50 [9]: 4.83 µM (active) | IC50 (Estrogen receptor beta [10]): 3.13 µM (active) | IC50 (Estrogen receptor beta [11]): > 109 µM (not active) | IC50 (Ephrin type-A receptor 4): 2.02 µM (active) | IC50 [12]: 0.786 µM (active) | EC50 [13]: 4.22 µM (active)

CCC(C(=O)NCc1cccnc1)c1ccccc1 (stereo unspecified)
IC50 [14]: > 109 µM (inactive) | IC50 [15]: > 83.2 µM (inactive)

Cc1ccc(-c2csc3ncnc(S)c23)cc1
IC50 [14]: > 109 µM (inactive) | IC50 [15]: 76.2 µM (inactive)

C[C@@H](CN(C)C)CN1c2ccccc2Sc2ccccc21
IC50 [16]: > 33.3 µM (inactive)

O=C(CNC(=O)c1ccc(Br)o1)Nc1cccc(-c2cnc3ccccc3n2)c1
IC50 [1]: 41.2 µM (not active)

COc1ccccc1-c1nc(-c2ccccn2)no1
EC50 (BJ [17]): 9.58 µM (active) | EC50 (BJ [18]): 10.4 µM (active) | EC50 (HT-1080): > 50 µM (not active) | EC50 (BJ [19]): > 150 µM (inconclusive) | EC50 [20]: 7.2 µM (active) | AC50 (HEK293): 1.26 µM (active) | AC50 [21]: 10.4 µM (active) | AC50 [22]: 19.4 µM (active) | AC50 [23]: 3.35 µM (active) | AC50 [24]: 2.05 µM (active) | EC50 [25]: > 67.5 µM (inactive) | AC50 [26]: 10.7 µM (active) | EC50 (cells): > 67.5 µM (inactive)

C[C@@H]1CCCCO[C@@H](CN(C)S(=O)(=O)c2ccc(F)cc2)[C@@H](C)CN([C@H](C)CO)C(=O)c2cc(N(C)C)ccc2O1
AC50 [27]: 7.15 µM (active)

O=C(O)c1sc2cc(C(F)(F)F)cnc2c1-c1ccccc1
IC50 [28]: > 30 µM (not active) | AC50 (Cytochrome P450 2C19): 39.8 µM (inconclusive) | AC50 (Cytochrome P450 2C9): 28.2 µM (inconclusive)

O=C(Nc1cc(S(=O)(=O)N2CCOCC2)ccc1Cl)c1cc([N+](=O)[O-])ccc1Cl
AC50 [29]: 13 µM (active)

O=C(Nc1ccccc1F)N1CCCCN2[C@H](CO)[C@H](c3ccc(/C=C/c4ccccc4)cc3)[C@H]2C1
AC50 [27]: 1.6 µM (active)

O=C(Cc1cccc(NC(=O)C2CCCN(C(=O)C3CCCC3)C2)c1)Nc1cccc(C(=O)N2CCOCC2)c1 (stereo unspecified)
AC50 [3]: > 30 µM (inactive)

— ChEMBL document CHEMBL1201862, “PubChem BioAssay data set” (2004)
